Measured values taken from patent publication US7514446B2, “Pyrimidine compounds” (SmithKline Beecham Corporation, priority 2003, dated 2009).
Structures can show the parent of a compound that is named as a salt.

Key:
[1] = system: H460 lung tumor cell line; experiment: Methylene Blue Growth Inhibition Assay, H460; type: cell-based; settings: Homo sapiens, NCI-H460, 72 h; H460 cells, 3 days; read-out: MeB Cell Line IC50
Experimental: (§1) II. Methylene Blue Growth Inhibition Assay
(§2) Normal Human foreskin fibroblasts (HFF) and human colon (HCT116, RKO), lung (H460), prostate (PC3), and breast tumor (MCF7) cell lines were cultured in high glucose DMEM (Life Technologies) containing 10% fetal bovine serum (FBS) at 37° C. in a humidified 10% CO2, 90% air incubator. Cells were harvested using trypsin/EDTA, counted using a haemocytometer, and plated in 100 μl of the appropriate media, at the following densities, in a 96-well tissue culture plate (Falcon 3075): HFF 5,000 cells/well, HCT116 3,000 cells/well, RKO 2,500 cells/well, H460 2,000 cells/well, PC3 8,000 cells/well, MCF7 4,000 cells/well. The next day, compounds were diluted in DMEM containing 100 μg/ml gentamicin, at twice the final required concentration, from 10 mM stock solutions in DMSO. 100 μl/well of these dilutions were added to the 100 μl of media currently on the cell plates. Medium containing 0.6% DMSO was added to control wells. Compounds diluted in DMEM were added to all cell lines. The final concentration of DMSO in all wells was 0.3%. Cells were incubated at 37° C., 10% CO2 for 3 days. Medium was removed by aspiration. Cell biomass was estimated by staining cells with 90 μl per well methylene blue (Sigma M9140, 0.5% In 50:50 ethanol:water), and incubation at room temperature for at least 30 minutes. Stain was removed, and the plates rinsed under a gentle stream of water, and air-dried. To release stain from the cells 100 μl of solubilization solution was added (1% N-lauroyl sarcosine, Sodium salt, Sigma L5125, in PBS), and plates were shaken gently for about 30 minutes. Optical density at 620 nm was measured on a microplate reader. Percent inhibition of cell growth was calculated relative to vehicle treated control wells. Concentration of compound that inhibits 50% of cell growth (IC50) was interpolated using nonlinear regression (Levenberg-Marquardt) and the equation, y=Vmax*(1−(x/(K+x)))+Y2, where “K” was equal to the IC50. In Table 1, +=10->30 uM; ++=1-10 uM: +++=<1 uM.

[2] = system: PC3 prostate tumor cell line; experiment: Methylene Blue Growth Inhibition Assay, PC3; type: cell-based; settings: Homo sapiens, PC-3, 72 h; PC3 cells, 3 days; read-out: MeB Cell Line IC50
Experimental: as §1, §2

[3] = system: MCF7 breast tumor cell line; experiment: Methylene Blue Growth Inhibition Assay, MCF7; type: cell-based; settings: Homo sapiens, 72 h; MCF7 cells, 3 days; read-out: MeB Cell Line IC50
Experimental: as §1, §2

[4] = system: Normal Human foreskin fibroblasts (HFF); experiment: Methylene Blue Growth Inhibition Assay, HFF; type: cell-based; settings: 72 h, HFF cells, 3 days, read-out: MeB Cell Line IC50
Experimental: as §1, §2

[5] = system: HCT116 colon tumor cell line; experiment: Methylene Blue Growth Inhibition Assay, HCT116; type: cell-based; settings: Homo sapiens, HCT-116, 72 h; HCT116 cells, 3 days; read-out: MeB Cell Line IC50
Experimental: as §1, §2

[6] = system: RKO colon tumor cell line; experiment: Methylene Blue Growth Inhibition Assay, RKO; type: cell-based; settings: Homo sapiens, 72 h; RKO cells, 3 days; read-out: MeB Cell Line IC50
Experimental: as §1, §2

PLK1 kinase domain = target: T1, PLK1 kinase domain (Homo sapiens, UniProt P53350); experiment: Assay for inhibition of PLK1 (SPA, 33P-ATP, His-tagged PLK kinase domain); type: biochemical; settings: 2 μM ATP, read-out: Ave pIC50 PLK Enzyme Inhibition (converted)
T1 construct: made in house; host or cells: baculovirus-infected T. ni insect cells
T1 sequence (P53350 21-346): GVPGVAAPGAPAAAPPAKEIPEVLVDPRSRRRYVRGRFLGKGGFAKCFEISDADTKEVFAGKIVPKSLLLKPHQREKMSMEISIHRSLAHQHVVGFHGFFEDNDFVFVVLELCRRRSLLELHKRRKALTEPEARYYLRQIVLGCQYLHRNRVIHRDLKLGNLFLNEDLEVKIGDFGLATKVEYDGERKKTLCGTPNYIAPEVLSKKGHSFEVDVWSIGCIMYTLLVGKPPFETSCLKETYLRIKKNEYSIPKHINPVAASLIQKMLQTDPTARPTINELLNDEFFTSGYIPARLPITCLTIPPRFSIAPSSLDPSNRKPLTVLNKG
Experimental: I. Assay for Inhibition of PLK1
A. Preparation of 6× N-terminal His-tagged PLK Kinase Domain
6× N-terminal His-tagged PLK kinase domain (amino acids 21-346 preceded by […]) was prepared from baculovirus infected T. ni cells under polyhedrin promoter control. All procedures were performed at 4° C. Cells were lysed in 25 mM HEPES, 200 mM NaCl, 25 mM imidazole; pH 8.0. The homogenate was centrifuged at 14K rpm in a SLA-1500 rotor for 40 min and the supernatant filtered through a 1.2 micron filter. The supernatant was loaded onto a Nickel chelating Sepharose (Amersham Pharmacia) column and washed with 25 mM HEPES, 500 mM NaCl, 25 mM imidazole; pH 8.0. The column was then washed with a 16.6% B step where buffer B is 25 mM HEPES, 500 mM NaCl, 300 mM imidazole; pH 8.0. Protein was eluted using a 10-column volume linear gradient from 16.6% B to 100% B. Fractions containing PLK were determined by SDS-PAGE. PLK was concentrated using a 10 kDa molecular weight cutoff membrane and then loaded onto a Superdex 75 gel filtration (Amersham Pharmacia) column equilibrated in 25 mM HEPES, 1 mM DTT, 500 mM NaCl; pH 8.0. Fractions containing PLK were determined by SDS-PAGE. PLK was pooled, aliquoted and stored at −80° C. Samples were quality controlled using mass spectrometry.
B. Enzyme Activity+/−Inhibitors was Determined as Follows:
Compounds were added to the plate (1 μl in 100% DMSO). DMSO (2% final) and EDTA (55.5 mM final) were used as controls. Reaction Mix A is prepared as follows at 4° C.:
Reaction Mix A (substrate Mix): • 25 mM HEPES, pH 7.2 • 15 mM MgCl2 • 2 μM ATP • 0.1 μCi/well ^33P-γ ATP (10 Ci/mMol) • 2 μM substrate peptide (Biotin-Ahx-[…]) Reaction Mix B is prepared as follows at 4° C.:
Reaction Mix B (Enzyme Mix) • 25 mM HEPES, pH 7.2 • 15 mM MgCl2 • 0.15 mg/ml BSA • 2 mM DTT • 2-10 nM PLK1 kinase domain
Reaction Mix A (20 μl) is added per well. Reaction Mix B (20 μl) is added per well. Incubate 1.5 hrs. at RT. The enzymatic reaction is stopped with 175 μl of SPA/EDTA bead mix (29 mM EDTA, 2.5 mg/ml Streptavidin-coated SPA in Standard Dulbecco's PBS (without Mg^2+ and Ca^2+), 60 μM ATP). Plates are sealed spun (after a 1 hr incubation at RT) at 1,000×g for 7 min or settled overnight, then plates counted in Packard TopCount for 30 seconds/well.

SMILES	IC50 [1]	IC50 [2]	IC50 [3]	IC50 [5]	IC50 [6]	IC50 (PLK1 kinase domain)	IC50 [4]
COc1cc(Nc2ncc([N+](=O)[O-])c(Nc3ccc(Cl)cc3C(=O)c3ccccc3F)n2)cc(OC)c1OC [Example 36, [5-Chloro-2-({5-nitro-2-[(3,4,5-trimethoxyphenyl)amino]pyrimidin-4-yl}amino)phenyl](2-fluorophenyl)methanone hydrochloride]	1 to 10 µM	> 10 µM	1 to 10 µM	1 to 10 µM	1 to 10 µM	< 0.1 µM	> 10 µM
COc1cc(Nc2ncc([N+](=O)[O-])c(Nc3cccc4c3OCCO4)n2)cc(OC)c1OC [Example 19, N^4-(2,3-dihydro-1,4-benzodioxin-5-yl)-5-nitro-N^2-(3,4,5-trimethoxyphenyl)pyrimidine-2,4-diamine hydrochloride]	1 to 10 µM	> 10 µM	1 to 10 µM	> 10 µM	1 to 10 µM	< 0.1 µM	> 10 µM
COc1cc(Nc2ncc([N+](=O)[O-])c(Nc3ccccc3C(N)=O)n2)cc(OC)c1OC [Example 3, 2-({5-nitro-2-[(3,4,5-trimethoxyphenyl)amino]pyrimidin-4-yl}amino)benzamide hydrochloride]	< 1 µM	1 to 10 µM	< 1 µM	< 1 µM	< 1 µM		1 to 10 µM
COc1cc(Nc2ncc([N+](=O)[O-])c(Nc3cccc4[nH]ccc34)n2)cc(OC)c1OC [Example 15, N^4-(1H-indol-4-yl)-5-nitro-N^2-(3,4,5-trimethoxyphenyl)pyrimidine-2,4-diamine hydrochloride]	1 to 10 µM	1 to 10 µM	1 to 10 µM	1 to 10 µM	< 1 µM	< 0.1 µM	1 to 10 µM
COc1cc(Nc2ncc([N+](=O)[O-])c(Nc3cccc4c3C(=O)CCC4)n2)cc(OC)c1OC [Example 9, 8-({5-nitro-2-[(3,4,5-trimethoxyphenyl)amino]pyrimidin-4-yl}amino)-3,4-dihydronaphthalen-1(2H)-one hydrochloride]	1 to 10 µM	1 to 10 µM	1 to 10 µM	1 to 10 µM	1 to 10 µM	< 0.1 µM	> 10 µM

More lines, main results first:

IC50 [1]	IC50 [2]	IC50 [3]	IC50 [5]	IC50 [6]	IC50 (PLK1 kinase domain)	SMILES	IC50 [4]
1 to 10 µM	1 to 10 µM	1 to 10 µM	1 to 10 µM	1 to 10 µM	< 0.1 µM	COc1cc(Nc2ncc([N+](=O)[O-])c(Nc3ccccc3C(=O)NC(C)(C)C)n2)cc(OC)c1OC [Example 5, N-(tert-butyl)-2-({5-nitro-2-[(3,4,5-trimethoxyphenyl)amino]pyrimidin-4-yl}amino)benzamide hydrochloride]	1 to 10 µM
1 to 10 µM	> 10 µM	1 to 10 µM	1 to 10 µM	1 to 10 µM	< 0.1 µM	COc1cc(Nc2ncc([N+](=O)[O-])c(Nc3ccccc3C(=O)NC3CCCCC3)n2)cc(OC)c1OC [Example 34, N-Cyclohexyl-2-({5-nitro-2-[(3,4,5-trimethoxyphenyl)amino]pyrimidin-4-yl}amino)benzamide hydrochloride]	1 to 10 µM
1 to 10 µM	1 to 10 µM	1 to 10 µM	1 to 10 µM	1 to 10 µM	< 0.1 µM	CC(=O)Nc1ccc(Nc2ncc([N+](=O)[O-])c(Nc3ccccc3C(=O)c3ccccc3)n2)cc1 [Example 7, N-[4-({4-[(2-benzoylphenyl)amino]-5-nitropyrimidin-2-yl}amino)phenyl]acetamide hydrochloride]	> 10 µM
1 to 10 µM	1 to 10 µM	1 to 10 µM	1 to 10 µM	1 to 10 µM	< 0.1 µM	COc1cc(Nc2ncc(C#N)c(Nc3ccccc3C(=O)c3ccc(C)cc3)n2)cc(OC)c1OC [Example 39, 4-{[2-(4-Methylbenzoyl)phenyl]amino}-2-[(3,4,5-trimethoxyphenyl)amino]pyrimidine-5-carbonitrile]	> 10 µM
> 10 µM	> 10 µM	> 10 µM	> 10 µM	> 10 µM	< 0.1 µM	COc1cc(Nc2ncc([N+](=O)[O-])c(Nc3ccc(O)cc3C(=O)O)n2)cc(OC)c1OC [Example 22, 5-Hydroxy-2-({5-nitro-2-[(3,4,5-trimethoxyphenyl)amino]pyrimidin-4-yl}amino)benzoic acid hydrochloride]	> 10 µM
